# Measured values published in patent publication US20240209047A1, “GROWTH FACTOR CONJUGATES” (priority 2021, published 2024).
# “Also recorded” adds a separate entry of the source.
# Key:
# [1] = Persistence of EGF in the wound bed by ELISA specific to anti-human EGF; assay type: in vivo, mouse; settings: for persistence of EGF in the wound bed: mass per mm^2 of tissue, in vivo
# Procedure: Detection of crosslinked EGF on dermal wounds: Persistence of CxEGF, qEGF and soluble EGF in the wound bed was determined using ELISA specific to anti-human EGF. Mice were euthanized at each time point and the wound bed was harvested. The tissue was digested using 7.5 Units/ml collagenase in the presence of 1 μM dithiothreitol (DTT) over 2 h at 37° C. This was centrifuged at 14000 RPM and the supernatant following which ELISA was performed. Specificity of the ELISA was verified using mouse recombinant EGF. Amount of EGF (mg) measured on the wound bed was expressed per surface area (mm^2) of the tissue.
# The feasibility to tether sulfo-SMCC modified nanospheres to graft tissue was first evaluated (FIG. 9). Full thickness splinted wounds (8 mm in diameter) were created on heterozygous (db+/−;BKS.Cg-m+/+Leprdb) mouse as described above. Wound surfaces were treated with a reducing agent (tris(2-carboxyethyl)phosphine; TCEP) to break the disulfide bonds. The crosslinkers and reducing agents were used at non-toxic doses (FIG. 10). […] Immediately after the treatment, wounds were covered with a semi-occlusive dressing to minimize scab formation (Park Shin Ae et al., 2014). Wound beds were harvested at various time points and the presence of EGF attached on the surfaces was determined by ELISA (FIG. 3B). […] A gradual decrease in the amount of surface immobilized EGF was observed after 2 days. […] We note that the number of disulfide bonds available for anchoring CxEGF is difficult to ascertain in vivo and may thus contribute to the partial surface coverage. Secondary validation of the linkage chemistry was done using an in vitro model of the surface chemistry using (3 mercaptopropyl)trimethoxysilane (MPTS) or trimethoxy(propyl)silane (TPS) and maleimide by a reduction in contact angle and increased thickness of deposition (FIG. 3D). The mercapto group on the MPTS simulated sulfhydryl groups present on a native wound bed, and TPS was devoid of any functional group simulating a passivated wound surface.
# [2] = system: full thickness splinted wounds (8 mm diameter) of db/db mice; experiment: Wound closure of full thickness splinted dermal wounds in diabetic mice; assay type: in vivo, mouse; settings: for percentage wound closure: treated 6 times over 11 days (every other day)
# Text: In vivo studies: All procedures adhered to the recommendations in the Guide for the Care and Use of Laboratory Animals of the National Institutes of Health. The protocol for this experiment was approved by the Institutional Animal Care and Use Committee of University of California, Davis.
# Creating of full thickness splinted dermal wounds: Genetically diabetic 12 week old male mice (db/db; BKS.Cg-m+/+Leprdb; Jackson Laboratories, Bar Harbor, ME) were used for this study. […] 8 mm Full thickness wounds were created on the dorsal surface of db/db mice as described previously (Park S. A. et al., 2014).
# Mice in the sEGF group received native EGF (300 ng) dissolved in PEG immediately after wounding and twice daily until day 10. The NoTx group remained without any treatment through the study period. All wounds were dressed using a sterile coverslip and a semi-occlusive bandage.
# (§1) Clinical and histological analyses: All analyses were performed as described previously (Park S. A. et al., 2014). Briefly, wounds were clinically evaluated and imaged daily, and the wound area was measured using image analysis software, and percentage wound closure was calculated. Mice were humanely euthanized on day 11 and the entire wound bed was harvested. Histologic analyses was performed by a board-certified veterinary pathologist.
# HaCaT cells [3] = experiment: HaCaT proliferation with soluble EGF; assay type: cell-based, human; settings: 1% FBS, 0-80 ng/ml soluble EGF
# Procedure: FIG. 8. In vitro proliferation rates of spontaneously immortalized human keratinocytes (HaCaT cells), cultured in growth medium containing 1% (v/v) serum (FBS), treated with 0-80 ng/ml soluble EGF. Results are mean f standard deviation, ***p<0.001 (ANOVA followed by Dunnett's multiple comparison test) compared with control cultures.
# EGF is a key growth factor involved in triggering wound re-epithelialization, one of the critical early events in wound closure, whose prolonged exposure is required for eliciting a cellular response (Bennett N. T. and Schultz G. S., 1993, Bennett N. T. and Schultz G. S., 1993, 171 Gipson and Inatomi, 1995, Jost et al., 2000). […] A full thickness splinted wound (8 mm in diameter) was created on each heterozygous (db+/−; BKS.Cg-m+/+ Leprdb) mouse as described previously (Park Shin Ae et al., 2014). […] Functional bioactivity of EGF was determined in vitro using spontaneously transformed keratinocytes (HaCaT cell line) from histologically normal skin (FIG. 8). As a possible contributor to the lack of significant positive effect, we observed a rapid loss of recombinant human EGF from the surface of wounds within 1 h of topical administration (FIG. 2B). […]
# [4] = system: wound bed from a db/db mouse; experiment: Histopathological evaluation of wound bed of db/db mice after 11 days; assay type: in vivo
# Text: FIG. 5A-C. Histopathological evaluations of a wound bed from a db/db mouse treated with/without crosslinked EGF over 11 days upon wounding. Scale Bars=500 μm. (A) Measurement of epithelial gap (blue line) and reepithelialization (red line). The epithelial gap was defined as the distance between the advancing edges of keratinocyte migration measured in millimeters. Length of reepithelialization was defined as the length of the layer of proliferating keratinocytes covering the wound area. This value was obtained by measuring s the distance between the free edge of the keratinocyte layer and the base where the cells were still associated with native, non-affected dermal tissue. The final value was the sum of distance in millimeters of both sides. H&E staining. Graphs indicate the mean f standard deviation of epithelial gap/re-epithelialized measure on surface wounds after 11 days with or without treatments. (B) Measurement of the fibrovascular dermal proliferation in the wound bed. Using picrosirius red stain under polarized light the bright collagen fibers of the wound bed are highlighted and automatically measured by the software. The final data is expressed as a percentage of outlined wound area comprised of collagen. Graphs indicate the mean f standard deviation of % collagen measured in surface wounds after 11 days with or without treatments. […] The inflammatory response was assessed using a semi-quantitative scoring system ranging from 0 to 4 where 0 indicates no inflammation, 1 indicates 0-25% of the wound area affected, 2 indicates 25-50% of the wound area affected, 3 indicates 50-75% of the wound area affected, and 4 indicates 75% of the wound area affected. H&E staining. Graphs indicate the mean±standard deviation of inflammation score. *p<0.05 compared with qEGF-6x, #p<0.05 compared with NoTx (t-test/Mann-Whitney rank sum test).
# FIG. 11. Percentage distribution of inflammatory cells in wound bed of diabetic mice at the end of 11 days. […] Results are mean f standard deviation of the ratio of positive cells to total number of cells in the wound bed.
# as §1
# HaCaT cells [5] = experiment: HaCaT proliferation (MTT) on surfaces with covalently immobilized EGF; assay type: cell-based, human
# Procedure: Human 433 immortalized kertinocytes (HaCaT) cells were cultured in growth medium containing 1% (v/v) serum (FBS). The proliferation rates are expressed as % control when cultured on surfaces [trimethoxy(propyl)silane (TPS) or 3-mercaptopropyl trimethoxysilane (3-MPTS)] immobilized with EGF. As positive control, cells were also cultured in the growth medium containing 10% 437 (v/v) FBS. ***p<0.001, one-way ANOVA followed by Dunnett's multiple comparison test compared with control cultures (cells cultured in media with 1% serum).
# In vitro surface modification: An in vitro model of the wound surface was generated by silanizing glass coverslips with either trimethoxy(propyl)silane (TPS) or 3-mercaptopropyl trimethoxysilane (3-MPTS). Disulfide bonds (if any) on the surface of the silanated coverslips were reduced using 10 μM tris(2-carboxyethyl)phosphine (TCEP) for 10 min to generate an abundance of —SH bonds. These exposed —SH groups were used to covalently immobilize EGF.
# Measuring bioactivity in vitro: Human immortalized kertinocytes (HaCaT cells) were plated on unmodified glass surfaces, or on surfaces covalently immobilized with EGF, or on surfaced with quenched EGF, in Dulbeccos' modified Eagle's medium (DMEM) supplemented with 1% fetal bovine serum and proliferation was determined after 5 days using the MTT assay (Raghunathan et al., 2013). […]
# deep-partial burn wounds = settings: cited from earlier work
# [6] = ratio of positive cells to total cells, after 11 days
# [7] = 30 ng crosslinked onto TCEP treated wound surface
# [8] = 6x, every other day over 11 days
substance,measurement,setting,value
"sEGF: Human recombinant EGF (ProspecBio) dissolved in 5% (w/v) polyethylene glycol, applied topically",persistence of EGF in the wound bed,[1]; ELISA,rapidly removed from wound surface
same,loss of recombinant human EGF from the surface of wounds after topical administration,"[1]; topical administration, wound surface, ELISA",≤ 1 h
same,percentage wound closure / epithelial closure,"[2]; soluble EGF 300 ng topically twice daily, over 11 days, db/db mice",did not significantly alter wound healing or epithelial closure; also recorded: did not promote epithelial closure
same,in vitro proliferation rate,HaCaT cells [3],increased cell proliferation
"CxEGF: Human recombinant EGF conjugated with sulfo-SMCC, covalently crosslinked onto TCEP-reduced wound surface",inflammation (semi-quantitative score 0 to 4),"[4]; 6x, day 11, H&E",reduction in inflammation
same,epithelial gap,"[4]; 6x, day 11, H&E, versus qEGF, no treatment or soluble EGF",dramatic decreases in epithelial gap
same,inflammation (semi-quantitative score 0 to 4),"[4]; 6x, day 11, H&E, listed as Cross linked EGF",elicited less inflammation
same,collagen content,"[4]; 6x, day 11, picrosirius red",comparable collagen content
same,F-480 positive macrophages in wound bed,[4]; [6],No statistically significant differences
same,GR1 positive granulocytes in wound bed,[4]; [6],No statistically significant differences
same,apparent surface coverage,[1]; [7],2 pg/mm^2
same,sustained surface immobilization of the growth factor,[1]; [7],2 days
same,persistence of EGF in the wound bed,[1]; ELISA,increases persistence of EGF on the wound surface
same,apparent surface coverage (equivalent),[1]; equivalent of the pg/mm^2 value,1.99×10^8 molecules/mm^2
same,surface coverage as fraction of a theoretical monolayer of EGF,[1]; theoretical monolayer 213.6 pg/mm^2,1/100
same,proliferation rate (% control),"HaCaT cells [5]; HaCaT, 1% FBS, TPS or 3-MPTS surfaces immobilized with EGF",strongly promotes proliferation
same,increase in cell proliferation,"HaCaT cells [5]; immobilized on MPTS or TPS coated glass, MTT, after 3 days of treatment",over 2 fold
same,wound closure rate (reduction of wound radii),"[2]; 1x, immobilization only once immediately after wounding",no significant effects on wound closure rate
same,wound closure rate (decrease in wound radius per day),"[2]; 3x, every 4 days",significantly higher wound closure rate
same,wound closure rate (decrease in wound radius per day),[2]; [8],significantly higher wound closure rate
same,percentage wound closure,[2]; db/db mice,significant acceleration of wound closure; also recorded: significantly improved wound healing
"qEGF: s-SMCC conjugated EGF with its maleimide group quenched with β-mercaptoethanol (NSDSECPLSHDGYCLHDGVCMYIEALDKYACNCVVGYIGERCQYRDLKWWELR; Epidermal growth factor sulfo-SMCC, maleimide quenched with β-mercaptoethanol; UniProt P01133 971-1023, looked up) [reference compound]",wound closure rate (decrease in wound radius per day),[2]; [8],ineffective in altering wound healing rates
same,percentage wound closure,[2]; db/db mice,NoTx group had a significantly higher percentage wound closure compared to the qEGF group
aFGF: topical recombinant human acidic fibroblast growth factor,fully healed rate,"deep-partial burn wounds; deep-partial burn wounds, versus placebo",53.85%
same,mean healed time of the burn wounds,"deep-partial burn wounds; placebo 18.92±0.49, p=0.035",17.23±0.53
